Results on three compounds are retold here after patent publication US6855505B2, “Method for quantifying TGF-β” (Renovo Limited, priority 1998, dated 2005).

The subject of assay [1] is rat incisional wounds. The following applies: application into rat dermal wounds; earlier studies; cited from earlier work.
The next assay relates to total TGF-β. The assay can be described thus: Total TGF-β (active plus latent) in heat-activated wound cryosections, PAI/L assay. Type of assay: in vivo, rat. The following applies: for level of total TGF-β in treated wounds compared with control wounds: M6P 100 mM, 100 μl/wound/day; for level of total TGF-β in treated wounds compared to controls: 100 μM kistrin. The text has this:
(§1) Adult male Sprague-Dawley rats (Charles River UK Ltd, Kent, UK) weighing 225-250 g were anaesthetised by inhalation of halothane, nitrous oxide, and oxygen. The back of the rats was shaved, and four full-thickness linear incisions of 1 cm length, including the panniculus carnosus, were made on the back of the animals using a scalpel as described in Shah et al., “Control of scarring in adult wounds by neutralising antibody to transforming growth factor β, Lancet. 339: 213-214, 1992. The wounds were left unsutured to heal by secondary intention. The animals were allowed to recover, housed separately, and fed ad libitum until the wounds were harvested. The animals were killed by chloroform overdose at 1 hour, 6 hour, or 1, 2, 3, 4, 5, 7, 10 and 14 days post-wounding. The wounds were harvested and processed as described below. All animal experiments were carried out under appropriate licences according to UK Home Office regulations.
(§2) The wound area was swabbed with 70% ethanol. The wounds were carefully dissected from surrounding tissue and subsequently embedded in 8% sterile methyl cellulose (Sigma, Dorset, UK) and snap frozen in liquid nitrogen. Four wounds from each animal were embedded in one block of methyl cellulose. Four tissue samples of equivalent size representing surrounding tissue adjacent to the wound were also excised and processed as described above. Normal skin from the back of non-wounded rats was used as a control. The embedded tissue samples were stored at −80° C. for a maximum of 3 months. Thick cryosections (20 μm) were cut and placed on sterilised 13-mm round coverslips and analysed in duplicate. The coverslips, each carrying 4 cryosections of the wound, were placed into a 24-well cell culture plate and temporarily stored at −20° C. until transferred onto mink lung epithelial cells (MLECs).
In order to measure total TGF-β (active plus latent) in the wound tissue samples, the coverslips carrying the cryosections were submerged in 500 μl of DMEM-BSA medium in a sterile glass embryo dish (BDH, Merck, Leics., UK) and incubated for 20 minutes at 80° C. in order to heat activate latent TGF-β. Following heat activation, the coverslips were transferred, together with the medium, onto MLECs for TGF-β quantification in the PAI/L assay according to Example 1. Similar results were obtained in three separate experiments.
(§3) 20 animals each received 4 wounds which were subsequently treated with M6P (100 mM, 100 μl/wound/day). Animals were killed at 1 and 6 hours and 1, 3, 5, 7, 10 and 14 days post wounding. The wounds were dissected and embedded in methyl cellulose, then snap frozen. The tissue samples were subsequently prepared for use in the modified PAI-1/L assay.
(§4) Briefly, rat incisional wounds were treated with 100 μM kistrin, then prepared and assayed as described previously.

Assay [2] has as its system rat incisional wounds. The assay can be described thus: Scarring in rat incisional wound model. Type of assay: in vivo.
Source text: as §1
Briefly, rat incisional wounds were treated with 1 mM monodansylcadaverine (MDC), a potent inhibitor of Transglutaminase activity. The wounds were prepared and assayed as described previously.
as §4

A further assay deals with active TGF-β. The assay can be described thus: Active TGF-β in wound cryosections, modified PAI/L assay. It is filed as in vivo, rat. Conditions: for level of active TGF-β in treated wounds compared with PBS controls: M6P 100 mM, 100 μl/wound/day; for level of active TGF-β in treated wounds compared to controls: 100 μM kistrin.
Source text: as §1, §2
Referring to FIG. 1, the original PAI/L assay for the quantification of TGF-β in liquid samples was modified in order to measure active/latent TGF-β levels in a tissue section of a wound site to provide an indication of the levels at the wound site in vivo. As shown in FIG. 1A MLECs (10) were plated for 4 h into 24-well plates. one well (12) being represented in FIG. 1A (3×10^5/ml, 500 μl/well) in complete DMEM and incubated for 4 hours at 37° C. Then, serum-containing medium was replaced with 500 μl of DMEM containing 0.1% pyrogen-poor BSA (from Pierce, Rockford, Ill., USA), aprotinin (1 μg/ml) (from Sigma, Dorset, UK) penicillin (100 U/ml) and streptomyciln (100 μg/ml), designated DMEM-BSA medium (14). The coverslips (16) carrying cryosections (18) were placed upside down onto the MLECs (10) in the 24-well plates.
These serial dilutions were added to the MLECs (10) together with methyl-cellulose coated coverslips (16).
Both samples and TGF-β standards were incubated with the MLECs (10) overnight at 37° C. MLECs (10) were then washed with phosphate buffered saline (PBS) and lysed with 200 μl of luciferase cell lysis buffer (from Analytical Luminescence Laboratory, Ann Arbor, USA) for 20 minutes at room temperature. Forty-five microliters of the lysates was transferred in triplicate to a Microlite 96-well plate (Dynatech Laboratories Inc. Chantilly, Va., USA). Luciferase activity in the lysates was determined using an MLX Microtiter Plate Luminometer (Dynex Technologies, Chantilly, Va., USA).
as §3
Briefly, rat incisional wounds were treated with 1 mM monodansylcadaverine (MDC), a potent inhibitor of Transglutaminase activity. The wounds were prepared and assayed as described previously. […]

The test system of a further assay is latent TGF-β. Briefly: Latent TGF-β in wound sections. Type of assay: in vivo, rat. Conditions: 100 μM kistrin; 1 hour post wounding. How it is done: as §4
The mark [3] stands for this setting: rat incisional wounds treated with 1 mM MDC.

`O=C[C@@H](O)[C@@H](O)[C@H](O)[C@H](O)COP(=O)(O)O` [M6P, mannose-6-phosphate]: the quality of scarring result in the assay with rat incisional wounds [1] was “improve the quality of scarring”. The “level of total TGF-β in treated wounds compared with control wounds” value in the assay with total TGF-β (6 hours post wounding) was “higher than controls”; in the assay on total TGF-β (5 days post wounding), “higher than controls”; in the assay on total TGF-β (7 days post wounding), “less than controls”; with total TGF-β (10 days post wounding), “higher than controls”. The scarring result in the assay with rat incisional wounds [2] (local administration of M6P, rat incisional wound model, previously demonstrated by the applicant) was “significantly reduces scarring”. The “level of active TGF-β in treated wounds compared with PBS controls” value in the assay on active TGF-β (1 hour post wounding) was “less”; in the assay on active TGF-β (6 hours post wounding) it was “less”; with active TGF-β (10 days post wounding) it was “more active TGF-β than controls”; in the assay with active TGF-β (after 6 hours until 10 days post wounding), “comparable”. The “reduction of levels of active TGF-β in vivo (overall conclusion)” value with active TGF-β (M6P treated rat wounds, early stages of wound repair) is given as “effective in reducing the levels of active TGF-β in vivo”.
As for `CN(C)c1cccc2c(S(=O)(=O)NCCCCCN)cccc12` [MDC, monodansylcadaverine], in the assay with rat incisional wounds [2] (setting [3]), the scarring result is “improves scarring”. Besides, in the assay on active TGF-β (setting [3]), the “early TGF-β levels” value was “reduces early TGF-β levels”. Besides, the “TGF-β activation in vivo” value with active TGF-β (rat incisional wounds treated with 1 mM MDC, FIG. 8) is reported as “inhibits TGF-β activation in vivo”.
As for kistrin, the “level of total TGF-β in treated wounds compared to controls” value in the assay with total TGF-β (1 hour post wounding) is “increased”; in the assay with total TGF-β (5 days post wounding), “no differences”. Besides, the antiscarring effect result in the assay on rat incisional wounds [2] (kistrin treated rat incisional wounds) is given as “no antiscarring effect”. Moreover, the “amount of latent TGF-β compared to controls” value with latent TGF-β is listed as “no difference”. In addition, the “level of active TGF-β in treated wounds compared to controls” value with active TGF-β (1 hour post wounding) is listed as “increased”; in the assay with active TGF-β (5 days post wounding), “no differences”.
